Data on two molecules can be found in US20020192194A1, “Production and use of dopaminergic cells to treat dopaminergic deficiencies” (priority 2000, published 2002).

Assay [1] has as its system hNT neurons. The assay is described as follows: TH expression of hNT neurons treated with lithium chloride (TH immunoreactivity counts). It counts as cell-based, human. The settings on record: 1.0 mM, 5-day cultures. Here is the method:
A small-scale dose range study analyzed whether therapeutic (0.5-1.0 mM) and clinically toxic (2.0-6.0 mM) concentrations of LiCl enhanced TH expression in cells treated for 6 weeks with retinoic acid and then LiCl. The control and lithium-treated cultures (0.5, 1.0 and 3.0 mM) were scored for TH immunoreactivity, which was expressed as the number of TH-positive (TH+) cells/well. For TH immunohistochemistry the cells were rinsed in 0.1 M phosphate buffered saline (PBS), fixed in 4% paraformaldehyde, and then again rinsed in PBS. […] To determine the percentage of cells labeled by a particular antibody in representative experiments, the numbers of labeled and unlabeled cells were assessed in a blind-coded manner using a 20X objective and a photographic frame. […]
To investigate the effect of various doses of LiCl on tyrosine hydroxylase expression in 5 DIV hNT neurons, we determined the number of unlabeled and TH+ neurons in a blind coded manner using a 20X objective and a photographic frame (field=0.3 mm^2). […] The dose responsive tests were analyzed using a one-way analysis of variance (ANOVA) followed by post hoc comparisons using Bonferroni-Dunn analysis.

Assay [2] has as its system hNT neurons. The assay is described as follows: Soma size and neurite outgrowth of TH+ hNT cells (image analysis). The settings on record: 5 days in culture. It counts as cell-based, human. The method, then:
The same series of slides immunostained for TH were employed to measure the soma size (μm^2) and neurite outgrowth (μm) of appropriately 50 TH+ cells per representative culture experiment using a computerized image analysis program (Image-Pro Plus, Media Cybernetics, Inc., Silver Springs, Md.) at 20X objective. The results in the morphological assessment study are reported as mean ±SEM and were analyzed using Student's t-test.

Regarding `[Cl-].[K+]` [KCl], the “numbers of TH+ hNT cells vs control” value with hNT neurons [1] is “not significantly different”. In the assay with hNT neurons [2], the “neurite outgrowth vs control” value is listed as “did not significantly differ from control values” and the “soma size vs control” value is reported as “not significantly different from control”.

Consider `[Cl-].[Na+]` [NaCl], for which the “numbers of TH+ hNT cells vs control” value in the assay with hNT neurons [1] was “not significantly different”. Further, in the assay on hNT neurons [2], the “neurite outgrowth vs control” value is “did not significantly differ from control values” and the “soma size vs control” value is on record as “not significantly different from control”.
